Reference: patent US20180057507A1, “INHIBITORS OF DUAL LEUCINE ZIPPER (DLK) KINASE FOR THE TREATMENT OF DISEASE” (Board of Regents, The University of Texas System, priority 2016, published 2018)

What was measured:
human DLK [1] = biological target: T1, human DLK (Homo sapiens, UniProt Q12852); assay: Phospho-cJun Cellular Assay; format: cell-based; parameters: expressed in transfected cells; conditions: HEK293 cells stably transfected with Dox-inducible human DLK; p-cJun (Ser63); 5 h compound incubation
T1 sequence (Q12852 1-859): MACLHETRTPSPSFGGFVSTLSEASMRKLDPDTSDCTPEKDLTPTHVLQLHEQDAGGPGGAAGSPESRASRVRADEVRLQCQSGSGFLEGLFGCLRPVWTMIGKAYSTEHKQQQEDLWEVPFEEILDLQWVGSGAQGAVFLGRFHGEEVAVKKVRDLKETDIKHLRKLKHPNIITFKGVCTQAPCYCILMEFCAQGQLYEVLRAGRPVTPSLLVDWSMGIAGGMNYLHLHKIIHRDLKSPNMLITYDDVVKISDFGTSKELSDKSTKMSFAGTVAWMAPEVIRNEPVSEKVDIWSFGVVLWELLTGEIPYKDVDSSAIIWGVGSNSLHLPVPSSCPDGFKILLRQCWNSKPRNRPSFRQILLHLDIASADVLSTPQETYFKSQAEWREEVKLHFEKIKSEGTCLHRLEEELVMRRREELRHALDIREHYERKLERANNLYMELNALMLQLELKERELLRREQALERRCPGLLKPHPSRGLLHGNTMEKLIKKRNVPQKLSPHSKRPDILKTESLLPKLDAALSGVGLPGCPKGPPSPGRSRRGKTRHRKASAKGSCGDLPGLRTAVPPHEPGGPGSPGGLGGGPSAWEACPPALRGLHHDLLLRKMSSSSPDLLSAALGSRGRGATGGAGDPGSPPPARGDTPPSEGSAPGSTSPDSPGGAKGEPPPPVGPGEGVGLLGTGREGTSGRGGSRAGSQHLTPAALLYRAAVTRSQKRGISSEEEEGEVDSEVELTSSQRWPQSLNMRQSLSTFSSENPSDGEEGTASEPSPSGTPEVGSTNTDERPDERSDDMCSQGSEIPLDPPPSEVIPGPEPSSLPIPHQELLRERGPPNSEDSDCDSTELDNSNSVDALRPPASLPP
Summary of the method: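 HEK293 cells with doxycycline-induced human DLK (induced 20 h; uninduced cells as negative control) treated with compound for 5 h at 37 °C. Phospho-cJun (Ser63) measured in lysates with detection-antibody kit; IC50 from variable-slope dose-response fit.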

human DLK [2] = biological target: T1, human DLK; assay: DLK Kd Determinations (KINOMEscan KdELECT, DiscoveRx); parameters: full length of human DLK (amino acids 1-859); host or cells: transiently transfected HEK293 cells; unpurified extract; conditions: fusion protein of full length human DLK (amino acids 1-859) and NFkB DNA binding domain; qPCR readout; duplicate
Summary of the method: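 Competition binding of full-length human DLK (aa 1-859)-NFkB DBD fusion, DNA-tagged, from HEK293 extracts against an immobilized ligand; 1 h at room temperature, 0.9% DMSO. Bead-bound kinase was quantified by qPCR. Kd came from an 11-point 3-fold series (top 30,000 nM), in duplicate, with Hill slope fixed at −1.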

| SMILES | IC50 (human DLK [1]) | Kd (human DLK [2]) |
| --- | --- | --- |
| CN1CCN(C2C[C@@H]3[C@H](C2)[C@H]3n2cc(-c3cnc(N)c(C(F)(F)F)c3)nc2C2CC2)CC1 (single isomer, unassigned) [Example 129a, 5-(2-cyclopropyl-1-(3-(4-methylpiperazin-1-yl)bicyclo[3.1.0]hexan-6-yl)-1H-imidazol-4-yl)-3-(trifluoromethyl)pyridin-2-amine] | 503 nM | 12.8 nM |
| CC(C)c1nc(-c2cnc(N)c(C(F)(F)F)c2)cn1C1CC2(CC(N3CCOCC3)C2)C1 (stereo not shown) [Example 38, 5-(2-isopropyl-1-(6-morpholinospiro[3.3]heptan-2-yl)-1H-imidazol-4-yl)-3-(trifluoromethyl)pyridin-2-amine] | 1140 nM | 25 nM |
| CN1CCN(C2C[C@@H]3[C@H](C2)[C@H]3n2cc(-c3cnc(N)c(OC(F)F)c3)nc2C2CC2)CC1 (stereo partly shown) [Example 150, 5-(2-cyclopropyl-1-(3-(4-methylpiperazin-1-yl)bicyclo[3.1.0]hexan-6-yl)-1H-imidazol-4-yl)-3-(difluoromethoxy)pyridin-2-amine] | 1090 nM | 54 nM |
| Nc1ncc(-c2cn([C@H]3[C@@H]4CN(C5CCOCC5)C[C@@H]43)c(C3CC3)n2)cc1OC(F)(F)F [Example 66, 5-(2-cyclopropyl-1-((1R,5S,6s)-3-(tetrahydro-2H-pyran-4-yl)-3-azabicyclo[3.1.0]hexan-6-yl)-1H-imidazol-4-yl)-3-(trifluoromethoxy)pyridin-2-amine] | 827 nM | 59 nM |
| COCCN1C[C@@H]2[C@H](C1)[C@H]2n1cc(-c2cnc(N)c(C(F)(F)F)c2)nc1CC(F)(F)F [Example 121, 5-(1-((1R,5S,6s)-3-(2-methoxyethyl)-3-azabicyclo[3.1.0]hexan-6-yl)-2-(2,2,2-trifluoroethyl)-1H-imidazol-4-yl)-3-(trifluoromethyl)pyridin-2-amine] | 1590 nM | 49 nM |
| Nc1ncc(-c2cn([C@H]3[C@@H]4CN(C5COC5)C[C@@H]43)c(CC3CC3)n2)cc1C(F)(F)F [Example 2, 5-(2-(cyclopropylmethyl)-1-((1R,5S,6s)-3-(oxetan-3-yl)-3-azabicyclo[3.1.0]hexan-6-yl)-1H-imidazol-4-yl)-3-(trifluoromethyl)pyridin-2-amine] | 1730 nM | 46 nM |
| C[C@H]1COCCN1C1C[C@@H]2[C@H](C1)[C@H]2n1cc(-c2cnc(N)c(C(F)(F)F)c2)nc1C1CC1 (single isomer, unassigned) [Example 140a] | 834 nM | 32 nM |
| CC(C)c1nc(-c2cnc(N)c(C(F)(F)F)c2)cn1[C@H]1[C@@H]2CC(N3CCOCC3)C[C@@H]21 (single isomer, unassigned) [Example 127b] | 633 nM | 61 nM |
| Nc1ncc(-c2cn(C3CC4(CC(N5CCOCC5)C4)C3)c(C3CC3)n2)cc1C(F)(F)F (stereo not shown) [Example 40, 5-(2-cyclopropyl-1-(6-morpholinospiro[3.3]heptan-2-yl)-1H-imidazol-4-yl)-3-(trifluoromethyl)pyridin-2-amine] | 587 nM | 42 nM |
| CC(C)c1nc(-c2cnc(N)c(C(F)(F)F)c2)cn1[C@H]1[C@@H]2CC(O)C[C@@H]21 (single isomer, unassigned) [Example 48b, 6-(4-(6-amino-5-(trifluoromethyl)pyridin-3-yl)-2-isopropyl-1H-imidazol-1-yl)bicyclo[3.1.0]hexan-3-ol] | 1240 nM | 59 nM |
| COCCN1C[C@@H]2[C@H](C1)[C@H]2n1cc(-c2cnc(N)c(C(F)(F)F)c2)nc1C1CC1 [Example 94, 5-(2-cyclopropyl-1-((1R,5S,6s)-3-(2-methoxyethyl)-3-azabicyclo[3.1.0]hexan-6-yl)-1H-imidazol-4-yl)-3-(trifluoromethyl)pyridin-2-amine] | 1960 nM | 61 nM |
| COCCN1C[C@@H]2[C@H](C1)[C@H]2n1cc(-c2cnc(N)c(OC(F)F)c2)nc1CC1CC1 [Example 117, 5-(2-(cyclopropylmethyl)-1-((1R,5S,6s)-3-(2-methoxyethyl)-3-azabicyclo[3.1.0]hexan-6-yl)-1H-imidazol-4-yl)-3-(difluoromethoxy)pyridin-2-amine] | 987 nM | 48 nM |
| Nc1ncc(-c2cn([C@H]3[C@@H]4CN(C5COC5)C[C@@H]43)c(C3CC3)n2)cc1OC(F)(F)F [Example 65, 5-(2-cyclopropyl-1-((1R,5S,6s)-3-(oxetan-3-yl)-3-azabicyclo[3.1.0]hexan-6-yl)-1H-imidazol-4-yl)-3-(trifluoromethoxy)pyridin-2-amine] | 1050 nM | 32 nM |
| CC(C)c1nc(-c2cnc(N)c(C(F)(F)F)c2)cn1[C@H]1[C@@H]2CC(N3CCOCC3)C[C@@H]21 (single isomer, unassigned) [Example 127a] | 939 nM | 52 nM |
| Nc1ncc(-c2cn([C@H]3[C@@H]4CN(CCF)C[C@@H]43)c(C3CC3)n2)cc1OC(F)(F)F [Example 69, 5-(2-cyclopropyl-1-((1R,5S,6s)-3-(2-fluoroethyl)-3-azabicyclo[3.1.0]hexan-6-yl)-1H-imidazol-4-yl)-3-(trifluoromethoxy)pyridin-2-amine] | 2440 nM | 45 nM |
| CN1CCN(C2CC3C(C2)C3n2cc(-c3cnc(N)c(OC(F)F)c3)nc2C2CC2)CC1 (stereo not shown) [Example 137, 5-(2-cyclopropyl-1-(3-(4-methylpiperazin-1-yl)bicyclo[3.1.0]hexan-6-yl)-1H-imidazol-4-yl)-3-(difluoromethoxy)pyridin-2-amine] | 710 nM | 22 nM |
| CC(C)Cc1nc(-c2cnc(N)c(OC(F)(F)F)c2)cn1[C@H]1[C@@H]2CC(N3CCN(C)CC3)C[C@@H]21 (stereo partly shown) [Example 158, 5-(2-isobutyl-1-(3-(4-methylpiperazin-1-yl)bicyclo[3.1.0]hexan-6-yl)-1H-imidazol-4-yl)-3-(trifluoromethoxy)pyridin-2-amine] | 500 nM | 12 nM |

The next lines start with the values.

| IC50 (human DLK [1]) | Kd (human DLK [2]) | SMILES |
| --- | --- | --- |
| 1190 nM | 23 nM | CC(C)c1nc(-c2cnc(N)c(C(F)(F)F)c2)cn1[C@H]1[C@@H]2CC(N3CCN(CCF)CC3)C[C@@H]21 (single isomer, unassigned) [Example 155a, 5-(1-(3-(4-(2-fluoroethyl)piperazin-1-yl)bicyclo[3.1.0]hexan-6-yl)-2-isopropyl-1H-imidazol-4-yl)-3-(trifluoromethyl)pyridin-2-amine] |
| 655 nM | 26 nM | Nc1ncc(-c2cn([C@H]3[C@@H]4CC(N5CCCOCC5)C[C@@H]43)c(C3CC3)n2)cc1C(F)(F)F (single isomer, unassigned) [Example 141a, 5-(1-(3-(1,4-oxazepan-4-yl)bicyclo[3.1.0]hexan-6-yl)-2-cyclopropyl-1H-imidazol-4-yl)-3-(trifluoromethyl)pyridin-2-amine] |
| 587 nM | 16 nM | Nc1ncc(-c2cn([C@H]3[C@@H]4CC(N5CCCOCC5)C[C@@H]43)c(C3CC3)n2)cc1C(F)(F)F (single isomer, unassigned) [Example 141b, 5-(1-(3-(1,4-oxazepan-4-yl)bicyclo[3.1.0]hexan-6-yl)-2-cyclopropyl-1H-imidazol-4-yl)-3-(trifluoromethyl)pyridin-2-amine] |
| 346 nM | 4.5 nM | CC(C)Cc1nc(-c2cnc(N)c(C(F)(F)F)c2)cn1[C@H]1[C@@H]2CC(N3CCN(C)CC3)C[C@@H]21 (single isomer, unassigned) [Example 146b, 5-(2-isobutyl-1-(3-(4-methylpiperazin-1-yl)bicyclo[3.1.0]hexan-6-yl)-1H-imidazol-4-yl)-3-(trifluoromethyl)pyridin-2-amine] |
| 889 nM | 50 nM | CC(C)c1nc(-c2cnc(N)c(OC(F)F)c2)cn1[C@H]1[C@@H]2CC(N3CCN(C)CC3)C[C@@H]21 (single isomer, unassigned) [Example 145b, 3-(difluoromethoxy)-5-(2-isopropyl-1-(3-(4-methylpiperazin-1-yl)bicyclo[3.1.0]hexan-6-yl)-1H-imidazol-4-yl)pyridin-2-amine] |
| 895 nM | 57 nM | CC(C)c1nc(-c2cnc(N)c(OC(F)(F)F)c2)cn1[C@H]1[C@@H]2CC(N3CCOC[C@@H]3C)C[C@@H]21 (single isomer, unassigned) [Example 157a] |
